This is an account of results in ChEMBL document CHEMBL5705884, “Breaching the DNA damage checkpoint via PF-00477736, a novel small-molecule inhibitor of checkpoint kinase 1” (Mol Cancer Ther, 2008).

pIC50: −log10 of the molar value. Active and inactive are the calls of the source. No cut-off for these calls is given here.

Experiment [1] addresses Fibroblast growth factor receptor 3 (Homo sapiens, UniProt P22607). Description: Inhibition of FGFR3 (unknown origin).
Experiment [2] has as its target T1, Receptor-type tyrosine-protein kinase FLT3 (Homo sapiens, UniProt P36888).
T1 sequence (P36888 whole entry): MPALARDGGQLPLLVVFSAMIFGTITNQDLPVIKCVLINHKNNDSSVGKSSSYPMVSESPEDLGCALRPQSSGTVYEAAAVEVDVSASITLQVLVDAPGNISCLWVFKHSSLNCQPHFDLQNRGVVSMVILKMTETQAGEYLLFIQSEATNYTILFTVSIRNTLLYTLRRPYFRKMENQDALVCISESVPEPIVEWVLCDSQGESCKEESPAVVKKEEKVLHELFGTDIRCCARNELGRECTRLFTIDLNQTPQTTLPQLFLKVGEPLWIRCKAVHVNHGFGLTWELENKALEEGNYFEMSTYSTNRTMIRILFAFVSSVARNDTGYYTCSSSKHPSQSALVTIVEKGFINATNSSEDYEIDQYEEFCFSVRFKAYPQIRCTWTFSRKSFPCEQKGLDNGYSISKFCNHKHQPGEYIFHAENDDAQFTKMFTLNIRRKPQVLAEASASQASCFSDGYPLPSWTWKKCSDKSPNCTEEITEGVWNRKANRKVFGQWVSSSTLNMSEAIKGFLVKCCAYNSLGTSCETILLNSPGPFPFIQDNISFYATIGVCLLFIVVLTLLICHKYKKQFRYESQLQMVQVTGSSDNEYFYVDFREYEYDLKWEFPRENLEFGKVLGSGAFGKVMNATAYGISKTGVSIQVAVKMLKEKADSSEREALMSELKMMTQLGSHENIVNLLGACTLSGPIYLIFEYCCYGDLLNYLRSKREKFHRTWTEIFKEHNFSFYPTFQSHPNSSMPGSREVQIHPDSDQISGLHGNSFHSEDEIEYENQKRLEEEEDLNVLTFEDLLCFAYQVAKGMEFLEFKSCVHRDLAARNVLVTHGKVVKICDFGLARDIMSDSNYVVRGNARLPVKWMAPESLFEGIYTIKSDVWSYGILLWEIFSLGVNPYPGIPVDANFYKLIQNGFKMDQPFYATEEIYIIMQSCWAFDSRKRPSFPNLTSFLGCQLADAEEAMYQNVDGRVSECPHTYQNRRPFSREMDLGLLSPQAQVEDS
Nature of the experiment: Inhibition of FLT3 (unknown origin).

Another experiment has as its system CA46. Description: Inhibition of camptothecin induced DNA damage in p-53 mutated human CA46 cells assessed as G2 checkpoint abrogation at 0.001 to 1 uM measured after 16 hrs presence of nocodazole by dot blot assay. In kind it is functional, cell-based. The following applies: dose 0.001-1 µM.
Experiment [3] relates to HT-29. Description: Inhibition of cell cycle arrest in human HT-29 cells assessed as inhibition of gemcitabine induced S-phase arrest pretreated with gemcitabine followed by compound treatment and measured after 10 to 48 hrs by flow cytometry analysis. It is filed as functional, cell-based. The following applies: time 10-48 hrs. (In general: A flow cytometer gives signals particle by particle.)

In experiment [4] the test system is HT-29. Nature of the experiment: Cytotoxicity in human HT-29 cells assessed as cell survival at 360 nM measured after 4 to 48 hrs by coulter counter method relative to control. It is filed as functional. As to conditions: time 4-48 hrs, read-out: Activity.
Experiment [5] concerns HT-29. Nature of the experiment: Antiproliferative activity against human HT-29 cells deficit of p53 expression assessed as inhibition of cell growth measured after 96 hrs by MTT assay. The following applies: HT-29, 96 h. It is filed as functional, cell-based. Background: Formazan colour is commonly taken as a measure of viable cells.
The test system of a further experiment is PC-3. Nature of the experiment: Potentiation factor, ratio of IC50 for human PC-3 cells to IC50 for human PC-3 cells in presence of SN-38. In kind it is functional.
The test system of experiment [6] is HT-29. Nature of the experiment: Inhibition of gemcitabine induced cell cycle arrest in human HT-29 cells assessed as decrease in CDK1 phosphorylation level at 360 nM by immunoblot analysis. In kind it is functional, cell-based. As to conditions: time 2-24 hrs. For orientation: Immunoblotting shows a protein as a band on a membrane.
For experiment [7], the system named is COLO 205. Nature of the experiment: Antitumor activity against human COLO 205 cells xenografted in athymic nude mouse model assessed as tumor growth inhibition at 15 mg/kg, ip administered twice daily in presence of gemcitabine (Gemcitabine alone = 40%). It is filed as functional. The following applies: read-out: TGI.
The subject of experiment [8] is COLO 205. Nature of the experiment: Antitumor activity against human COLO 205 cells xenografted in athymic nude mouse model assessed as potentiated tumor growth inhibition at 4 mg/kg, ip administered twice daily in presence of gemcitabine relative to control. The following applies: read-out: TGI. It is filed as functional.
Experiment [9] deals with COLO 205. Description: Antitumor activity against human COLO 205 cells xenografted in athymic nude mouse model assessed as potentiated tumor growth inhibition at 20 mg/kg, ip administered once daily in presence of gemcitabine relative to control. As to conditions: read-out: TGI. In kind it is functional.
In experiment [10] the test system is COLO 205. Description: Antitumor activity against human COLO 205 cells xenografted in athymic nude mouse model assessed as potentiated tumor growth inhibition at 40 mg/kg, ip administered twice daily in presence of gemcitabine relative to control. In kind it is functional. As to conditions: read-out: TGI.
For experiment [11], the system named is COLO 205. Description: Antitumor activity against human COLO 205 cells xenografted in athymic nude mouse model assessed as potentiated tumor growth inhibition at 7.5 mg/kg, ip administered once daily in presence of gemcitabine relative to control. In kind it is functional. The following applies: read-out: TGI.
Experiment [12] has as its system COLO 205. Nature of the experiment: Antitumor activity against human COLO 205 cells xenografted in athymic nude mouse model assessed as potentiated tumor growth inhibition at 7.5 mg/kg, ip administered twice daily in presence of gemcitabine relative to control. It is filed as functional. The following applies: read-out: TGI.
For experiment [13], the system named is COLO 205. Nature of the experiment: Antitumor activity against human COLO 205 cells xenografted in athymic nude mouse model assessed as potentiated tumor growth inhibition at 30 mg/kg, ip administered twice daily in presence of gemcitabine relative to control. The following applies: read-out: TGI. It is filed as functional.
The test system of experiment [14] is COLO 205. Description: Antitumor activity against human COLO 205 cells xenografted in athymic nude mouse model assessed as tumor growth delay by measuring test to control tumor ratio at 24 mg/kg, ip administered twice daily in presence of gemcitabine (Gemcitabine alone= 8%). In kind it is functional.
Experiment [15] concerns COLO 205. Description: Antitumor activity against human COLO 205 cells xenografted in athymic nude mouse model assessed as tumor growth delay by measuring test to control tumor ratio at 40 mg/kg, ip administered twice daily in presence of gemcitabine (Gemcitabine alone= 8%). In kind it is functional.
The test system of experiment [16] is COLO 205. Nature of the experiment: Antitumor activity against human COLO 205 cells xenografted in athymic nude mouse model assessed as tumor growth delay by measuring test to control tumor ratio at 7.5 mg/kg, ip administered twice daily in presence of gemcitabine (Gemcitabine alone = 3%). In kind it is functional.
Experiment [17] concerns COLO 205. Nature of the experiment: Antitumor activity against human COLO 205 cells xenografted in athymic nude mouse model assessed as tumor growth delay by measuring test to control tumor ratio at 30 mg/kg, ip administered twice daily in presence of gemcitabine (Gemcitabine alone = 3%). In kind it is functional.
Experiment [18] deals with COLO 205. Nature of the experiment: Antitumor activity against human COLO 205 cells xenografted in athymic nude mouse model assessed as gross log cell kill at 4 mg/kg, ip administered once daily in presence of gemcitabine (Gemcitabine alone = 0.5%). It is filed as functional.
Experiment [19] relates to COLO 205. Nature of the experiment: Antitumor activity against human COLO 205 cells xenografted in athymic nude mouse model assessed as gross log cell kill at 30 mg/kg, ip administered once daily in presence of gemcitabine (Gemcitabine alone = 0.27%). It is filed as functional.
In experiment [20] the test system is COLO 205. Description: Antitumor activity against human COLO 205 cells xenografted in athymic nude mouse model assessed as gross log cell kill at 7.5 mg/kg, ip administered twice daily in presence of gemcitabine (Gemcitabine alone = 0.27%). It is filed as functional.
Experiment [21] has as its system COLO 205. Description: Antitumor activity against human COLO 205 cells xenografted in athymic nude mouse model assessed as gross log cell kill at 15 mg/kg, ip administered twice daily in presence of gemcitabine (Gemcitabine alone = 0.27%). It is filed as functional.

Fibroblast growth factor receptor 3, sequence (P22607 whole entry): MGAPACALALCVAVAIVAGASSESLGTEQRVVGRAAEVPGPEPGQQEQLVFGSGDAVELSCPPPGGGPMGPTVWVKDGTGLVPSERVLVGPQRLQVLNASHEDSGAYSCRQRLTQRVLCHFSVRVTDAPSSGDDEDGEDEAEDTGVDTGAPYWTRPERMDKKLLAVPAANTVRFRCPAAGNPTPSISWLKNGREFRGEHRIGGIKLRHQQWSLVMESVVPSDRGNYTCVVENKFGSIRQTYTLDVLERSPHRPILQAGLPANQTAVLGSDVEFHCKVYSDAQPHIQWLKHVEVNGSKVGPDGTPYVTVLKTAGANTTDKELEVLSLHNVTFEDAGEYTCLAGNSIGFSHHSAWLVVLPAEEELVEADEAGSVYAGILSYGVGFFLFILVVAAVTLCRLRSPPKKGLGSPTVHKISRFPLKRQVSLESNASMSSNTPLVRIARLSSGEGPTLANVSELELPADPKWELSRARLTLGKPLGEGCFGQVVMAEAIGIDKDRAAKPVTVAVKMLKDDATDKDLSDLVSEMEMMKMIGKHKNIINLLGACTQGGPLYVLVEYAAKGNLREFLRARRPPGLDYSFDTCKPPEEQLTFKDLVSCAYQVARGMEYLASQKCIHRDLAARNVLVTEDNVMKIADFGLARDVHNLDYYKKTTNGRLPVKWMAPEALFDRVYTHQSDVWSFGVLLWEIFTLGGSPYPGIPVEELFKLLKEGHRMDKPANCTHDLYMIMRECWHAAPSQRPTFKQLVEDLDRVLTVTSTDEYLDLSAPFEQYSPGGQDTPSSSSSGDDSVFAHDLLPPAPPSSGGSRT

As a reminder, the pIC50 is the IC50 on a negative log10 scale, so that one unit is a factor of ten. For the compound `Cn1cc(-c2[nH]c3cc(NC(=O)[C@H](N)C4CCCCC4)cc4c3c2C=NNC4=O)cn1`, the figures for the pIC50 (in experiment [1]; in [2]; in the experiment on HT-29 [5]) were 7.33, 7.29 and 5.74, respectively. The inhibition result in the experiment on CA46 and with HT-29 [3] was “Active” throughout. Besides, the viability at 0.36 µM in the experiment on HT-29 [4] came to 93%. In addition, the PF50 in the experiment with PC-3 is 1.3. Further, in the experiment with HT-29 [6], the inhibition entry was “Dose-Dependent Effect”. The inhibition in vivo at 15 mg/kg in the experiment with COLO 205 [7] was found to be 66%. For the same compound, the inhibition in vivo at 4 mg/kg in the experiment on COLO 205 [8] was 12%. Further, the inhibition in vivo at 20 mg/kg in the experiment on COLO 205 [9] was determined as 43%. In addition, the inhibition in vivo at 40 mg/kg in the experiment with COLO 205 [10] turned out to be 75%. In addition, the values for the inhibition in vivo at 7.5 mg/kg in the experiment with COLO 205 [11] and in the experiment with COLO 205 [12] were 23% and 50%, respectively. Further, in the experiment with COLO 205 [13], the inhibition in vivo at 30 mg/kg was determined as 64%. The T/C in the experiment with COLO 205 [14] is listed as 12; in the experiment with COLO 205 [15], 20; with COLO 205 [16], 13.25; with COLO 205 [17], 9.75. In addition, the LCK worked out at 0.5 with COLO 205 [18], 0.66 in the experiment with COLO 205 [19], 1.21 with COLO 205 [20] and 1.03 with COLO 205 [21].
